Results reported in patent publication US8569509B2, “Thiazole-4-carboxylic acid esters and thioesters as plant protection agents” (priority 2008, dated 2013).

assay: log P determination (HPLC, calibration with unbranched alkan-2-ones); assay type: physicochemical; conditions: * LC-MS determination in the acidic range at pH 2.7, 0.1% aqueous formic acid and acetonitrile, linear gradient 10% to 95% acetonitrile
Experimental: The calibration is carried out using unbranched alkan-2-ones (having 3 to 16 carbon atoms) with known log P values (determination of the log P values by the retention times using linear interpolation between two successive alkanones). The lambda-maX values were determined in the maxima of the chromatographic signals using the UV spectra from 200 nm to 400 nm.

Structure (SMILES) | log p
Cc1cc(C)n(C(C)(C)C(=O)N2CCC(c3nc(C(=O)OC(C)c4ccc(F)cc4)cs3)CC2)n1 (racemic) [compound 403] | 3.47*
Cc1c(Cl)c(C(F)(F)F)nn1C(C)C(=O)N1CCC(c2nc(C(=O)OC3CCCCC3)cs2)CC1 (racemic) [compound 769] | 4.58*

same assay, conditions: * LC-MS determination in the acidic range at pH 2.7, mobile phases 0.1% aqueous formic acid and acetonitrile (0.1% formic acid), linear gradient 10% to 95% acetonitrile; reversed-phase C 18 HPLC

Structure (SMILES) | log p
CC=CC(CC)OC(=O)c1csc(C2CCN(C(=O)C(C)(C)n3nc(C)cc3C)CC2)n1 (mixture of isomers) [compound 799] | 3.78*
Cc1c(Cl)c(C(F)(F)F)nn1C(C)C(=O)N1CCC(c2nc(C(=O)Oc3cccc4ccccc34)cs2)CC1 (racemic) [compound 770] | 4.50*

same assay, conditions: * LC-MS determination in the acidic range, pH 2.7, 0.1% aqueous formic acid and acetonitrile, linear gradient 10% to 95% acetonitrile

Structure (SMILES) | log p
Cc1cc(C(F)(F)F)nn1CC(=O)N1CCC(c2nc(C(=O)OC3CCCC3)cs2)CC1 [compound 3] | 3.40*
Cc1cc(C(F)(F)F)nn1CC(=O)N1CCC(c2nc(C(=O)OC3CCc4ccccc43)cs2)CC1 (stereo not shown) [compound 8] | 3.76*
Cc1cc(C(F)(F)F)nn1CC(=O)N1CCC(c2nc(C(=O)Oc3ccc4ccccc4c3)cs2)CC1 [compound 10] | 3.84*
Cc1cc(C(F)(F)F)nn1CC(=O)N1CCC(c2nc(C(=O)OCc3ccc(F)cc3)cs2)CC1 [compound 12] | 3.35*
Cc1cc(C(F)(F)F)nn1CC(=O)N1CCC(c2nc(C(=O)OCc3ccccc3)cs2)CC1 [compound 15] | 3.37*
Cc1cc(C(F)(F)F)nn1CC(=O)N1CCC(c2nc(C(=O)OCc3ccc(Cl)cc3)cs2)CC1 [compound 17] | 3.73*
Cc1ccc(COC(=O)c2csc(C3CCN(C(=O)Cn4nc(C(F)(F)F)cc4C)CC3)n2)cc1 [compound 18] | 4.21*
COc1ccc(COC(=O)c2csc(C3CCN(C(=O)Cn4nc(C(F)(F)F)cc4C)CC3)n2)cc1 [compound 19] | 3.30*
Cc1cc(C(F)(F)F)nn1CC(=O)N1CCC(c2nc(C(=O)OCc3ccc(Cl)cc3Cl)cs2)CC1 [compound 20] | 3.69*
Cc1cc(C(F)(F)F)nn1CC(=O)N1CCC(c2nc(C(=O)OCc3cc(Cl)cc(Cl)c3)cs2)CC1 [compound 21] | 4.24*
Cc1cc(C(F)(F)F)nn1CC(=O)N1CCC(c2nc(C(=O)OCc3c(Cl)cccc3Cl)cs2)CC1 [compound 22] | 3.94*
Cc1cc(C(F)(F)F)nn1CC(=O)N1CCC(c2nc(C(=O)OCc3cccc(Cl)c3)cs2)CC1 [compound 24] | 3.72*
Cc1cc(C(F)(F)F)nn1CC(=O)N1CCC(c2nc(C(=O)OCc3cccc(C(F)(F)F)c3)cs2)CC1 [compound 25] | 3.81*
Cc1cc(C(F)(F)F)nn1CC(=O)N1CCC(c2nc(C(=O)OCc3ccc([N+](=O)[O-])cc3)cs2)CC1 [compound 28] | 3.22*
Cc1cc(C(F)(F)F)nn1CC(=O)N1CCC(c2nc(C(=O)OCc3ccc(C(C)(C)C)cc3)cs2)CC1 [compound 29] | 4.57*

same assay, conditions: pH 2.7; read-out: log P (pH 2.7)

Structure (SMILES) | chromatographic logP
O=C(O)c1csc(C2CCN(C(=O)Cn3nc(C(F)F)cc3C(F)F)CC2)n1 [III-1, 2-(1-{[3,5-Bis(difluoromethyl)-1H-pyrazol-1-yl]acetyl}piperidin-4-yl)-1,3-thiazole-4-carboxylic acid] | 1.71
O=C(O)c1csc(C2CCN(C(=O)Cn3ccc(C(F)(F)F)n3)CC2)n1 [III-2, 2-(1-{[3-(Trifluoromethyl)-1H-pyrazol-1-yl]acetyl}piperidin-4-yl)-1,3-thiazole-4-carboxylic acid] | 1.65
Cc1cc(C(F)(F)F)nn1CC(=O)N1CCCC(c2nc(C(=O)O)cs2)C1 (stereo not shown) [III-3, 2-(1-{[5-Methyl-3-(trifluoromethyl)-1H-pyrazol-1-yl]acetyl}piperidin-3-yl)-1,3-thiazole-4-carboxylic acid] | 1.9
Cc1cc(C(F)(F)F)nn1CC(=O)N1CCC(c2nc(C(=O)O)cs2)CC1 [III-4, 2-(1-{[5-Methyl-3-(trifluoromethyl)-1H-pyrazol-1-yl]acetyl}piperidin-4-yl)-1,3-thiazole-4-carboxylic acid] | 1.82
Cc1c(Cl)c(C(F)(F)F)nn1CC(=O)N1CCC(c2nc(C(=O)O)cs2)CC1 [III-5, 2-(1-{[4-Chloro-5-methyl-3-(trifluoromethyl)-1H-pyrazol-1-yl]acetyl}piperidin-4-yl)-1,3-thiazole-4-carboxylic acid] | 2.26
CCOC(=O)c1csc(C2CCN(C(=O)Cn3nc(C(F)F)cc3C(F)F)CC2)n1 [IV-1, Ethyl 2-(1-{[3,5-bis(difluoromethyl)-1H-pyrazol-1-yl]acetyl}piperidin-4-yl)-1,3-thiazole-4-carboxylate] | 2.52
CCOC(=O)c1csc(C2CCN(C(=O)Cn3ccc(C(F)(F)F)n3)CC2)n1 [IV-2, Ethyl 2-(1-{[3-(trifluoromethyl)-1H-pyrazol-1-yl]acetyl}piperidin-4-yl)-1,3-thiazole-4-carboxylate] | 2.41
CCOC(=O)c1csc(C2CCCN(C(=O)Cn3nc(C(F)(F)F)cc3C)C2)n1 (stereo not shown) [IV-3, Ethyl 2-(1-{[5-methyl-3-(trifluoromethyl)-1H-pyrazol-1-yl]acetyl}piperidin-3-yl)-1,3-thiazole-4-carboxylate] | 2.78
CCOC(=O)c1csc(C2CCN(C(=O)Cn3nc(C(F)(F)F)cc3C)CC2)n1 [IV-5, Ethyl 2-(1-{[5-methyl-3-(trifluoromethyl)-1H-pyrazol-1-yl]acetyl}piperidin-4-yl)-1,3-thiazole-4-carboxylate] | 2.62
CCOC(=O)c1csc(C2CCN(C(=O)Cn3nc(C(F)(F)F)c(Cl)c3C)CC2)n1 [IV-6, Ethyl 2-(1-{[4-chloro-5-methyl-3-(trifluoromethyl)-1H-pyrazol-1-yl]acetyl}piperidin-4-yl)-1,3-thiazole-4-carboxylate] | 3.17
CC(C)(C)OC(=O)N1CCC(c2nc(C(=O)Oc3cccc4ccccc34)cs2)CC1 [IX-2, tert-Butyl 4-{4-[(1-naphthyloxy)carbonyl]-1,3-thiazol-2-yl}piperidine-1-carboxylate] | 4.5
CC(C)(C)c1cc(C(F)(F)F)n(CC(=O)O)n1 [V-1, [3-tert-Butyl-5-(trifluoromethyl)-1H-pyrazol-1-yl]acetic acid] | 2.45
CC(C)(C)c1cc(C(F)(F)F)nn1CC(=O)O [V-2, [5-tert-Butyl-3-(trifluoromethyl)-1H-pyrazol-1-yl]acetic acid] | 2.45
CC(C)(C)c1cc(C(F)(F)C(F)(F)F)n(CC(=O)O)n1 [V-3, [3-tert-Butyl-5-(pentafluoroethyl)-1H-pyrazol-1-yl]acetic acid] | 2.92
CC(C)(C)c1cc(C(F)(F)C(F)(F)F)nn1CC(=O)O [V-4, [5-tert-Butyl-3-(pentafluoroethyl)-1H-pyrazol-1-yl]acetic acid] | 2.75
CC(C)c1cc(C(F)(F)F)n(CC(=O)O)n1 [V-5, [3-Isopropyl-5-(trifluoromethyl)-1H-pyrazol-1-yl]acetic acid] | 2.05
CCOC(=O)c1csc(C2CCNCC2)n1 [VI-1, 4-[4-(Ethoxycarbonyl)-1,3-thiazol-2-yl]piperidinium chloride] | 0.42
CCOC(=O)c1csc(C2CCCNC2)n1 (stereo not shown) [VI-2, 3-[4-(Ethoxycarbonyl)-1,3-thiazol-2-yl]piperidinium chloride] | 0.54
O=C(Oc1cccc2ccccc12)c1csc(C2CCNCC2)n1 [X-2, 4-{4-[(1-Naphthyloxy)carbonyl]-1,3-thiazol-2-yl}piperidinium chloride] | 1.42
CCOC(=O)Cn1nc(C(C)(C)C)cc1C(F)(F)F [XVI-1, Ethyl [3-tert-butyl-5-(trifluoromethyl)-1H-pyrazol-1-yl]acetate] | 3.89
CCOC(=O)Cn1nc(C(F)(F)F)cc1C(C)(C)C [XVI-2, Ethyl [5-tert-butyl-3-(trifluoromethyl)-1H-pyrazol-1-yl]acetate] | 3.48
CCOC(=O)Cn1nc(C(C)(C)C)cc1C(F)(F)C(F)(F)F [XVI-3, Ethyl [3-tert-butyl-5-(pentafluoroethyl)-1H-pyrazol-1-yl]acetate] | 4.45
CCOC(=O)Cn1nc(C(F)(F)C(F)(F)F)cc1C(C)(C)C [XVI-4, Ethyl [5-tert-butyl-3-(pentafluoroethyl)-1H-pyrazol-1-yl]acetate] | 4.05
CCOC(=O)Cn1nc(C(C)C)cc1C(F)(F)F [XVI-5, Ethyl [3-isopropyl-5-(trifluoromethyl)-1H-pyrazol-1-yl]acetate] | 3.22
CCOC(=O)Cn1nc(C(F)(F)F)c(Cl)c1C [XVI-6, Ethyl [4-chloro-5-methyl-3-(trifluoromethyl)-1H-pyrazol-1-yl]acetate] | 3.11
CC(C)(C)c1cc(C(F)(F)C(F)(F)F)[nH]n1 [XVIII-1, 3-tert-Butyl-5-(pentafluoroethyl)-1H-pyrazole] | 3.23
Cc1cc(C(F)(F)F)nn1CC(=O)N1CCC(c2nc(C(=O)SCc3ccc(F)cc3)cs2)CC1 [compound 27, S-(4-Fluorobenzyl) 2-(1-{[5-methyl-3-(trifluoromethyl)-1H-pyrazol-1-yl]acetyl}piperidin-4-yl)-1,3-thiazole-4-carbothioate] | 4

same assay, conditions: pH 7.8; read-out: log P (pH 7.8)

Structure (SMILES) | chromatographic logP
CCOC(=O)c1csc(C2CCN(C(=O)C(C)(C)n3nc(C)cc3C)CC2)n1 [IV-4, Ethyl 2-{1-[2-(3,5-dimethyl-1H-pyrazol-1-yl)-2-methylpropanoyl]piperidin-4-yl}-1,3-thiazole-4-carboxylate] | 2.34
Cc1c(Cl)c(C(F)(F)F)nn1CC(=O)O [V-6, [4-Chloro-5-methyl-3-(trifluoromethyl)-1H-pyrazol-1-yl]acetic acid] | 0.68

same assay, conditions: reversed-phase (C18) HPLC column; * LC-MS determination in the acidic range, pH 2.7, 0.1% aqueous formic acid and acetonitrile, linear gradient 10% to 95% acetonitrile; read-out: log p

Structure (SMILES) | chromatographic logP
Cc1cc(C(F)(F)F)nn1CC(=O)N1CCC(c2nc(C(=O)SCc3ccc(F)cc3)cs2)CC1 [compound 27, S-(4-Fluorobenzyl) 2-(1-{[5-methyl-3-(trifluoromethyl)-1H-pyrazol-1-yl]acetyl}piperidin-4-yl)-1,3-thiazole-4-carbothioate] | 4
